Assay: Oral bioavailability in CD IGS rat at 10 mg/kg measured after 26 hrs
Type: ADME, organism-based
Conditions: in vivo

SMILES | bioavailability [%]
NC(=O)c1sc2ncnc(-c3cccc(NC(=O)Nc4ccc(C(F)(F)F)cc4)c3)c2c1N | 0.3
COc1cncc(-c2nc(NC(C)(C)CO)nc3sc(C(N)=O)c(N)c23)c1 | 17

Source: ChEMBL document CHEMBL1933025, “Discovery and optimization of thieno[2,3-d]pyrimidines as B-Raf inhibitors” (Bioorg Med Chem Lett, 2012)
